# Measurements as given in patent US12653815B2, “Luminally-acting N-(piperidin-4-yl)benzamide derivatives” (Takeda Pharmaceutical Company Limited, priority 2020, dated 2026).
# Target: T1, human 5-HT4(b) receptor (Homo sapiens, UniProt Q13639)
# T1 construct: overexpressing the full-length human 5-HT4(b) receptor with an N-terminal FLAG tag; FLAG (N); host or cells: CHO-K1
# Assay: 5-HT4(b) agonist assay (cAMP accumulation)
# Assay type: cell-based
# Settings: CHO-K1 cells overexpressing full-length human 5-HT4(b) receptor; cAMP accumulation after 30 minutes at room temperature; 1 μM 5-HT as 100% activity
# Protocol: One may determine the activity of the compounds of Formula 1 using a variety of methods, including in vitro and in vivo methods. The ability of the example compounds to activate the 5-HT4(b) receptor may be determined using the following assay.
# Chinese hamster ovary (CHO-K1) cells overexpressing the full-length human 5-HT4(b) receptor with an N-terminal FLAG tag (Multispan Inc, Hayward, CA) are cultured per the manufacturer's protocol in 1:1 DMEM/F12 (Thermo Fisher, Waltham, MA) with 10% fetal bovine serum (GE Healthcare, Pittsburgh, PA) and 10 μg/mL puromycin (Thermo Fisher, Waltham, MA), and stored in frozen aliquots to be used as assay ready cells. On the day of the assay, cells are removed from frozen storage, washed two times in 1× Kreb's Ringer Buffer (Zenbio, Research Triangle Park, NC), and re-suspended to a concentration of 4×10^6 cells/mL in 1× Kreb's Ringer Buffer. Test compound (50 nL) in 100% DMSO is acoustically dispensed in low volume, white, 384-well polypropylene plates (Corning, Tewksbury, MA), followed by the addition of 4×10^4 cells per well in a total volume of 10 μL. Cells are incubated with test compound for 30 minutes at room temperature in the dark, and cAMP accumulation is measured using the Cisbio HiRange cAMP assay kit (Bedford, MA) per the manufacturer's protocol. Anti-cAMP antibody and d2-cAMP tracer reagents diluted in lysis/detection buffer are incubated in the dark for 1 hour, and results are measured on a Pherastar plate reader (BMG Labtech, Ortenberg, Germany). Data are normalized using 1 μM 5-HT (Sigma Aldrich, St. Louis, MO) as 100% activity, and DMSO alone as 0% activity.
# The ability of the example compounds to activate the 5-HT4(b) receptor was evaluated using the assay described in the Biological Activity section. Table 1, below, lists EC50 from the 5-HT4(b) agonist assay for each of the example compounds, where smaller EC50 values represent higher potency.
# T1 sequence (Q13639 whole entry): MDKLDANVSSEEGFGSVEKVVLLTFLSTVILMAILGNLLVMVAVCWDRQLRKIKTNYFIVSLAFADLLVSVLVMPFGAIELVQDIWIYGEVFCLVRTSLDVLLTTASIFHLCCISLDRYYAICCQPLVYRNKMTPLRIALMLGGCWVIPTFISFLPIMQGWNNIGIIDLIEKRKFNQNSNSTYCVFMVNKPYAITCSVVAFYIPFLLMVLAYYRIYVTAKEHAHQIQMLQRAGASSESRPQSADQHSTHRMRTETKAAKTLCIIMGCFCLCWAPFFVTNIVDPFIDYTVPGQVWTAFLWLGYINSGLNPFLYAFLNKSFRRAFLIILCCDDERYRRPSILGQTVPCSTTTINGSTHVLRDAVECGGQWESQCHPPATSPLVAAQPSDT
row,EC50,SMILES
1,23 nM,"Nc1c(Cl)cc(C(=O)NC2CCN(CCCCCC(=O)NCCCCCCCC(=O)NC[C@H](O)[C@@H](O)[C@H](O)[C@H](O)CO)CC2)c2c1CCO2 [Example 32, 4-amino-5-chloro-N-(1-(6-oxo-6-((8-oxo-8-(((2S,3R,4R,5R)-2,3,4,5,6-pentahydroxyhexyl)amino)octyl)amino)hexyl)piperidin-4-yl)-2,3-dihydrobenzofuran-7-carboxamide]"
2,12.6 nM,"Nc1c(Cl)cc(C(=O)NC2CCN(CCCCCC(=O)NCCCCCC(=O)NC[C@H](O)[C@@H](O)[C@H](O)[C@H](O)CO)CC2)c2c1CCO2 [Example 33, 4-amino-5-chloro-N-(1-(6-oxo-6-((6-oxo-6-(((2S,3R,4R,5R)-2,3,4,5,6-pentahydroxyhexyl)amino)hexyl)amino)hexyl)piperidin-4-yl)-2,3-dihydrobenzofuran-7-carboxamide]"
3,15.3 nM,"Nc1c(Cl)cc(C(=O)NC2CCN(CCCCCC(=O)NCCCC(=O)NC[C@H](O)[C@@H](O)[C@H](O)[C@H](O)CO)CC2)c2c1CCO2 [Example 34, 4-amino-5-chloro-N-(1-(6-oxo-6-((4-oxo-4-(((2S,3R,4R,5R)-2,3,4,5,6-pentahydroxyhexyl)amino)butyl)amino)hexyl)piperidin-4-yl)-2,3-dihydrobenzofuran-7-carboxamide]"
4,2.6 nM,"Nc1c(Cl)cc(C(=O)NCC2CCN(CC3CCN(CCCCCCCCC(=O)NC[C@H](O)[C@@H](O)[C@H](O)[C@H](O)CO)CC3)CC2)c2c1CCO2 [Example 35, 4-amino-5-chloro-N-((1-((1-(9-oxo-9-(((2S,3R,4R,5R)-2,3,4,5,6-pentahydroxyhexyl)amino)nonyl)piperidin-4-yl)methyl)piperidin-4-yl)methyl)-2,3-dihydrobenzofuran-7-carboxamide]"
5,2.5 nM,"Nc1c(Cl)cc(C(=O)NCC2CCN(CC3CCN(CCCCCCCCCCC(=O)NC[C@H](O)[C@@H](O)[C@H](O)[C@H](O)CO)CC3)CC2)c2c1CCO2 [Example 36, 4-amino-5-chloro-N-((1-((1-(11-oxo-11-(((2S,3R,4R,5R)-2,3,4,5,6-pentahydroxyhexyl)amino)undecyl)piperidin-4-yl)methyl)piperidin-4-yl)methyl)-2,3-dihydrobenzofuran-7-carboxamide]"
6,2 nM,"Nc1c(Cl)cc(C(=O)NCC2CCN(CC3CCN(CCCCCCC(=O)NC[C@H](O)[C@@H](O)[C@H](O)[C@H](O)CO)CC3)CC2)c2c1CCO2 [Example 37, 4-amino-5-chloro-N-((1-((1-(7-oxo-7-(((2S,3R,4R,5R)-2,3,4,5,6-pentahydroxyhexyl)amino)heptyl)piperidin-4-yl)methyl)piperidin-4-yl)methyl)-2,3-dihydrobenzofuran-7-carboxamide]"
7,1.2 nM,"Nc1c(Cl)cc(C(=O)NCC2CCN(CC3CCN(C(=O)CCCCCCCCCCC(=O)NC[C@H](O)[C@@H](O)[C@H](O)[C@H](O)CO)CC3)CC2)c2c1CCO2 [Example 38, 4-amino-5-chloro-N-((1-((1-(12-oxo-12-(((2S,3R,4R,5R)-2,3,4,5,6-pentahydroxyhexyl)amino)dodecanoyl)piperidin-4-yl)methyl)piperidin-4-yl)methyl)-2,3-dihydrobenzofuran-7-carboxamide]"
8,1.2 nM,"Nc1c(Cl)cc(C(=O)NCC2CCN(CC3CCN(C(=O)CCCCCCCCC(=O)NC[C@H](O)[C@@H](O)[C@H](O)[C@H](O)CO)CC3)CC2)c2c1CCO2 [Example 39, 4-amino-5-chloro-N-((1-((1-(10-oxo-10-(((2S,3R,4R,5R)-2,3,4,5,6-pentahydroxyhexyl)amino)decanoyl)piperidin-4-yl)methyl)piperidin-4-yl)methyl)-2,3-dihydrobenzofuran-7-carboxamide]"
9,2 nM,"Nc1c(Cl)cc(C(=O)NCC2CCN(CC3CCN(C(=O)CCCCCCC(=O)NC[C@H](O)[C@@H](O)[C@H](O)[C@H](O)CO)CC3)CC2)c2c1CCO2 [Example 40, 4-amino-5-chloro-N-((1-((1-(8-oxo-8-(((2S,3R,4R,5R)-2,3,4,5,6-pentahydroxyhexyl)amino)octanoyl)piperidin-4-yl)methyl)piperidin-4-yl)methyl)-2,3-dihydrobenzofuran-7-carboxamide]"
10,1.2 nM,"CO[C@H]1CN(CC2CCN(C(=O)CCCCCCCC(=O)NC[C@H](O)[C@@H](O)[C@H](O)[C@H](O)CO)CC2)CC[C@H]1NC(=O)c1cc(Cl)c(N)c2c1OCC2 [Example 41, 4-amino-5-chloro-N-((3S,4R)-3-methoxy-1-((1-(9-oxo-9-(((2S,3R,4R,5R)-2,3,4,5,6-pentahydroxyhexyl)amino)nonanoyl)piperidin-4-yl)methyl)piperidin-4-yl)-2,3-dihydrobenzofuran-7-carboxamide]"
11,1.4 nM,"CO[C@H]1CN(CC2CCN(C(=O)CCCCCC(=O)NC[C@H](O)[C@@H](O)[C@H](O)[C@H](O)CO)CC2)CC[C@H]1NC(=O)c1cc(Cl)c(N)c2c1OCC2 [Example 42, 4-amino-5-chloro-N-((3S,4R)-3-methoxy-1-((1-(7-oxo-7-(((2S,3R,4R,5R)-2,3,4,5,6-pentahydroxyhexyl)amino)heptanoyl)piperidin-4-yl)methyl)piperidin-4-yl)-2,3-dihydrobenzofuran-7-carboxamide]"
12,1.7 nM,"CO[C@H]1CN(CC2CCN(C(=O)CCCC(=O)NC[C@H](O)[C@@H](O)[C@H](O)[C@H](O)CO)CC2)CC[C@H]1NC(=O)c1cc(Cl)c(N)c2c1OCC2 [Example 43, 4-amino-5-chloro-N-((3S,4R)-3-methoxy-1-((1-(5-oxo-5-(((2S,3R,4R,5R)-2,3,4,5,6-pentahydroxyhexyl)amino)pentanoyl)piperidin-4-yl)methyl)piperidin-4-yl)-2,3-dihydrobenzofuran-7-carboxamide]"
13,3.1 nM,"CO[C@H]1CN(CCCCCC(=O)NCCCCCCCC(=O)NC[C@H](O)[C@@H](O)[C@H](O)[C@H](O)CO)CC[C@H]1NC(=O)c1cc(Cl)c(N)c2c1OCC2 [Example 44, 4-amino-5-chloro-N-((3S,4R)-3-methoxy-1-(6-oxo-6-((8-oxo-8-(((2S,3R,4R,5R)-2,3,4,5,6-pentahydroxyhexyl)amino)octyl)amino)hexyl)piperidin-4-yl)-2,3-dihydrobenzofuran-7-carboxamide]"
14,12.1 nM,"CO[C@H]1CN(CCCCCC(=O)NCCCCCC(=O)NC[C@H](O)[C@@H](O)[C@H](O)[C@H](O)CO)CC[C@H]1NC(=O)c1cc(Cl)c(N)c2c1OCC2 [Example 45, 4-amino-5-chloro-N-((3S,4R)-3-methoxy-1-(6-oxo-6-((6-oxo-6-(((2S,3R,4R,5R)-2,3,4,5,6-pentahydroxyhexyl)amino)hexyl)amino)hexyl)piperidin-4-yl)-2,3-dihydrobenzofuran-7-carboxamide]"
15,5.9 nM,CO[C@H]1CN(CCCCCC(=O)NCCCC(=O)NC[C@H](O)[C@@H](O)[C@H](O)[C@H](O)CO)CC[C@H]1NC(=O)c1cc(Cl)c(N)c2c1OCC2 [Example 46]
